This is an account of results in patent US7064116B2, “GABAA modulating neurosteroids” (priority 2000, dated 2006).

The melting point is the temperature, or range, at which the solid turns liquid. In general, EC50 refers to the concentration at which the effect is half-maximal.

Series [1] deals with benzodiazepine site of the GABAA/BZ/chloride channel complex (rat brain GBR enriched synaptosomal preparation). In words: Enhancement of [3H]-Flunitrazepam binding to the benzodiazepine site in rat brain synaptosomal membranes. Conditions: for EC50: enhancement of 1 nM [3H]-Flunitrazepam binding, 40 μg rat brain synaptosomal membrane, 30° C., 30 min; for Maximum stimulation: maximum stimulation of 1 nM [3H]-Flunitrazepam specific binding, normalized to control without test compound.

On to `C[C@]12CC[C@@H](N=[N+]=[N-])C[C@@H]1CC[C@@H]1[C@@H]2CC[C@]2(C)[C@@H](C(=O)CBr)CC[C@@H]12`, for which the melting point was in the range of 108 to 110 °C.

Take `C=C=CC(O)[C@H]1CC[C@H]2[C@@H]3CC[C@H]4CC(O)CC[C@]4(C)[C@H]3CC[C@]12C` (mixture of isomers) [17β-(1-hydroxy-2,3-butadienyl)-5α-androstane-3ol (mixture of C-20 epimers), 17β-(1-hydroxy-2,3-butadienyl)-5α-androstane-3-ol]: the melting point was in the range of 174 to 177 °C. Moreover, in series [1], the EC50 turned out to be 5.9 nM and the Maximum stimulation is recorded as 45.8%.

As to `C#CC(OC)[C@H]1CC[C@H]2[C@@H]3CC[C@H]4C[C@H](O)CC[C@]4(C)[C@H]3CC[C@]12C` (mixture of isomers) [17β-(1-methoxy-2-propynyl)-5α-androstan-3α-ol (mixture of C-20 epimers), 17β-(1-methoxy-2-propynyl)-5α-androstan-3α-ol], the melting point lay within 161 to 163 °C. Besides, in series [1], the EC50 was 4.48 nM and the Maximum stimulation is on record as 18.1%.

With `C#CC(O)[C@H]1CC[C@H]2[C@@H]3CC[C@H]4CC(O)CC[C@]4(C)[C@H]3CC[C@]12C` (single isomer, unassigned) [17β-(1-hydroxy-2-propynyl)-5α-androstan-3-ol (less polar C-20 epimer), 17β-(1-hydroxy-2-propynyl)-5α-androstan-3-ol], the EC50 entry in series [1] was “inactive”.

Consider `COc1ccc(C#CC(O)[C@H]2CC[C@H]3[C@@H]4CC[C@H]5C[C@H](O)CC[C@]5(C)[C@H]4CC[C@]23C)cc1` (single isomer, unassigned) [17β-[1-hydroxy-3-(4-methoxyphenyl)-2-propynyl]-5α-androstan-3α-ol], for which, in series [1], the EC50 turned out to be 36.3 nM and the Maximum stimulation stood at 23.3%.

The compound `C[C@]12CC[C@@H](N=[N+]=[N-])C[C@@H]1CC[C@@H]1[C@@H]2CC[C@]2(C)[C@@H](C(=O)CN=[N+]=[N-])CC[C@@H]12` [3α,21-di-azido-5α-pregnan-20-one] came in with a melting point of 133 to 135 °C. Also, in series [1], the EC50 stood at 314 nM and the Maximum stimulation is 16.4%.

In turn, `CC(=O)[C@H]1CC[C@H]2[C@@H]3CC[C@H]4C[C@H](N=[N+]=[N-])CC[C@]4(C)[C@H]3CC[C@]12C` [3α-azido-5α-pregnan-20-one, 3α-Azido-5α-pregnan-20-one] showed a melting point of 159 to 162 °C. Moreover, in series [1], the half-maximal effective concentration (EC50) result was “inactive”.

For the compound `CC(=O)[C@H]1CC[C@H]2[C@@H]3CC[C@H]4C[C@H](O)CC[C@]4(C)[C@H]3CC[C@]12C` [3α-hydroxy-5α-pregnan-20-one, reference compound], in series [1], the EC50 is 212 nM and the Maximum stimulation stood at 36%.

As for `C[C@]12CC[C@@H](O)C[C@@H]1CC[C@@H]1[C@@H]2CC[C@]2(C)[C@@H](C#CBr)CC[C@@H]12` [17β-(2-bromoethynyl)-5α-androstane-3α-ol], the melting point is 165 to 167 °C. In series [1], the EC50 was found to be 326 nM and the Maximum stimulation was found to be 72.7%.

Consider `COC(=O)C#C[C@H]1CC[C@H]2[C@@H]3CC[C@H]4C[C@H](O)CC[C@]4(C)[C@H]3CC[C@]12C` [17β-(2-methoxycarbonylethynyl)-5α-androstane-3α-ol], for which the melting point lay within 135 to 137 °C. In series [1], the EC50 amounted to 515 nM and the Maximum stimulation came out at 55.6%.

The compound `CC(O)C#C[C@H]1CC[C@H]2[C@@H]3CC[C@H]4C[C@H](O)CC[C@]4(C)[C@H]3CC[C@]12C` (stereo partly drawn) [17β-(3-hydroxy-1-butynyl)-5α-androstane-3α-ol] yielded a melting point of 169 to 171 °C. Also, in series [1], the EC50 entry was “inactive”.

`CC(=O)C#C[C@H]1CC[C@H]2[C@@H]3CC[C@H]4C[C@H](O)CC[C@]4(C)[C@H]3CC[C@]12C` [17β-(3-oxo-1-butynyl)-5α-androstan-3α-ol] displayed a melting point of 148 to 150 °C. In addition, in series [1], the EC50 entry was “inactive”.

In turn, `Cc1ccc(C#C[C@H]2CC[C@H]3[C@@H]4CC[C@H]5C[C@H](O)CC[C@]5(C)[C@H]4CC[C@]23C)cc1` [17β-[2-(4-tolyl)ethynyl]-5α-androstane-3α-ol] yielded a melting point of 178 to 180 °C. In addition, in series [1], the EC50 was 2380 nM and the Maximum stimulation was 52.6%.
